Source: patent US12139443B2, “Concentrated liquid compositions of urease inhibitors for nitrogen sources” (priority 2017, dated 2024)
Values joined by “and” are separate entries in the source; they are usually repeats but may differ in a detail not shown here. Equal entries are not always repeated. Where two headings read alike, the source gives them in different places.

Legend:
[1] = Thermal Stability of NBPT (oven exposure, weight loss and HPLC); type: physicochemical; settings: for % NBPT present by LC/UV % w/w: single determination
Description: One of the advantages of this invention is the application, at moderate temperatures, of thermally sensitive urease inhibitor onto the surfaces of urea. Moderate temperatures are defined as a range of about 20-70° C. Testing procedures were established to exactly weigh samples of approximately 1 gram of NBPT in an aluminum pan and expose them to different temperatures in an oven over varying amounts of time. The initial weight of NBPT in the pan was compared to the final weight of sample in the pan. The % NBPT was then determined by HPLC of the residual from the final weight pan by the following procedure:
1. Crush a portion of sample (˜5 g) using mortar and pestle.
2. Weigh about a 100 mg sample, in duplicate, and add to separate 10 mL volumetric flasks.
3. Bring to volume of 10 ml volumetric flask with 50:50 ACN(Acetonitrile):H2O.
5. Transfer a portion through a Nylon 0.45 μm syringe filter into an HPLC vial.
6. Inject on LC/UV (15-μg/mL calibration standard).

[2] = Time to dissolution of nitrification inhibitor coated with urease formulation; type: physicochemical; settings: UAN 30
From the text: • 1. In a 4 oz. glass jar add 97 grams of either Deionized (DI) Water or UAN 30. • 2. Add a ¾ inch magnetic stir bar and place on a Corning/Model PC-420 Heater/Stirrer and set stirring speed at #7. • 3. Charge 3 grams of a nitrification inhibitor coated or uncoated and start stop watch. • 4. Visually determine the point at which all particles of the nitrification inhibitor have dissolved and record this time as time to dissolution.

[3] = Crush strength of coated urea granules; type: physicochemical; settings: New Leader tester scale 1-10 (1 very poor), average of 10 runs
From the text: Crush strength is the minimum pressure required to crush a granule of urea. Crush strength is of concern during the application of urea and is a measure of the urea's expected broadcast distance. Crush strength is related to the maximum rotations per minute (rpm) for the spinner portion of the urea spreader. The higher the rpms of the spinner, the more distance the urea can be broadcasted. High rpms require high crush strength urea granules in order for the granules not to be pulverized to dust by the broadcast process.
In order for the coated granules of urea to be tested, they were first sifted through a series of screens to ensure that the urea granules to be tested were of similar particle size as the urea particle size has an impact on crush resistance. A mesh size of 320-400 was chosen as the urea particle size. A New Leader crushing strength tester was used utilizing a scale from 1-10 wherein a reading of 1 is rated very poor crush strength. The results in Table 14 are for coated urea stored at 25° C. and at 50° C. Also included in Table 14 is the weight percentage of DMSO of the composition of the coated urea.
However, it should be understood that a different method of applying example 86 to the surfaces of the urea granules might result in better coverage (e.g., atomization onto the granules). […]

[4] = tested on: urease enzyme
Description: The treated urea was prepared as follows:
• 1. Charging weight of urea as directed by Table 8 to a container. • 2. The urea was slowly agitated with overhead stirrer with U shaped agitator blade. • 3. The example was slowly dripped on the urea while mixing in the amount as directed by Table 8 (rate=3 quarts/ton of urea). • 4. […] The coated urea was placed in a jar and sealed.
• 1. In a 6″×9″ rectangular Tupperware sealable container with holes drilled on each end and sealed with tape charge 400 grams of West Texas Sandy Loam Soil and 100 grams of distilled water, mix thoroughly to a consistency of thick “mud” (% moisture should be between 30-40%). • 2. Calculate the surface area to be treated. • a. 6″×9.5″=sq in/1 44 sq in/sq ft=0.395 sq ft • b. 0.395 sq ft/43,560 sq ft/acre=0.0000091 acres • 3. Calculate amount of urea and treated urea to charge to the containers of soil • a. Application Rate: 400 pounds urea per acre • b. 400 lbs/acre/43560 sq ft/acre=0.009 lbs/sq ft×0.395 sq ft/container=0.0036 lbs/container×454 g/lb=1.65 grams urea per container. • c. Add 1.65 grams of urea and various treated ureas to each container • 4. Ammonia Volatilization Screening Test • a. Evenly distribute over the soil in each container 1.65 grams of example to be tested, • b. Seal container, • c. Take readings of ammonia volatilization of each container over a selected period of time as directed in Table 9, • i. Drager tube measurement • (1) Use Drager pump with 0-600 ppm (or range TBD) ammonia drager tube. • (2) At specified times, quickly remove the tape on one end of container and insert the drager tube/pump. • (3) Fully squeeze pump 20 times allowing enough time for pump to fully inflate between each squeeze and then remove the tube from the container and read. • (4) Open container lid and vent the remaining ammonia gas out of the container and reseal. • (5) Repeat procedure at next designated time.

[5] = tested on: nitrification of urea fertilizer; test: University of Arkansas soil incubation trial, urea coated with N Bound; settings: Urea without inhibitor
Description: To determine what minimum effective levels of DCD are required to meet acceptable levels of nitrification inhibition and to maximize performance versus inhibitor level, studies were performed at Auburn University, South Dakota State University and University of Arkansas. These studies were performed by coating urea with a liquid nitrification inhibitor product, trade name N Bound, which contained approximately 28% DCD. The application rates of N Bound on urea (Units are in quarts of N Bound/ton of urea) was varied to measure application level versus the conversion of urea to nitrate measured as mg NO3 extracted from the applied soil.
A trial conducted at University of Arkansas was designed to measure and compare the nitrate concentrations from the microbial activity on untreated urea and ureas coated with N Bound that had been applied to classified as a Calhoun silt loam (pH=7.4) at varying rates. The objective was to determine the minimum inhibitor application rate to achieve optimize nitrification inhibition.

CCCCNP(N)(N)=S [NBPT, N-(n-butyl)thiophosphoric triamide]
% NBPT present by LC/UV Average ([1]; 50° C./3600 sec): 99.38%
% Weight Loss Average ([1]; 50° C./3600 sec): 0.0%
% NBPT present by LC/UV % w/w ([1]; 50° C./3600 sec): 99.17% and 99.58%
% NBPT present by LC/UV Average ([1]; 70° C./900 sec): 99.38%
% Weight Loss Average ([1]; 70° C./900 sec): 0.26%
% NBPT present by LC/UV % w/w ([1]; 70° C./900 sec): 99.53% and 99.23%
% NBPT present by LC/UV Average ([1]; 100° C./300 sec): 22.92%
% Weight Loss Average ([1]; 100° C./300 sec): 10.36%
% NBPT present by LC/UV % w/w ([1]; 100° C./300 sec): 23.59% and 22.25%
% NBPT present by LC/UV Average ([1]; 120° C./180 sec): 4.67%
% Weight Loss Average ([1]; 120° C./180 sec): 13.55%
% NBPT present by LC/UV % w/w ([1]; 120° C./180 sec): 4.79% and 4.54%
% NBPT present by LC/UV Average ([1]; 140° C./90 sec): 3.84%
% Weight Loss Average ([1]; 140° C./90 sec): 13.42%
% NBPT present by LC/UV % w/w ([1]; 140° C./90 sec): 3.68% and 3.99%
degradation (HPLC) ([1]; 15 minutes at 70° C.): no degradation
% NBPT present by LC/UV Average ([1]; NBPT std, not heated): 99.25%
% NBPT present by LC/UV % w/w ([1]; NBPT std, not heated): 99.35% and 99.16%
thermal stability (HPLC) ([1]; temperatures >100° C.): poor thermal stability

N#CN=C(N)N [DCD untreated, Dicyandiamide]
Initial Appearance ([2]; 3%): clear
Time to Dissolution ([2]; 3 grams in 97 grams (3%)): 1740 s

NC(N)=O [Urea]
Crush Strength stored 24 hrs. @ 25 C. [3]: 5.4
Crush Strength stored 24 hrs. @ 50 C. [3]: 6.75
Ammonia Reading ([4]; 72 hours, 1.65 grams treated urea (3 quarts/ton) on West Texas Sandy Loam Soil): 220 ppm
Ammonia Reading ([4]; 144 hours): 475 ppm
Ammonia Reading ([4]; 264 hours): 460 ppm
Nitrate-N Concentration ([5]; Day 1, Calhoun silt loam): 113.4 mg NO3—N/kg soil
Nitrate-N Concentration ([5]; Day 3): 98.6 mg NO3—N/kg soil
Nitrate-N Concentration ([5]; Day 7): 151.6 mg NO3—N/kg soil
Nitrate-N Concentration ([5]; Day 14): 202.8 mg NO3—N/kg soil
Nitrate-N Concentration ([5]; Day 21): 221.2 mg NO3—N/kg soil
Nitrate-N Concentration ([5]; Day 28): 262.3 mg NO3—N/kg soil
Nitrate-N Concentration ([5]; Day 35): 255.3 mg NO3—N/kg soil
